In patent US20080113946A1, “N-aryl-5,7-dihydrofuro[3,4-d]pyrimidin-4-amines and analogs as activators of caspases and inducers of apoptosis and the use thereof” (Cyntovia, Inc., priority 2006, published 2008):
Like-named read-outs stand apart in the source and are kept apart here.

Experiments:
Type in all cases: cell-based
[1] = system: Human breast cancer cell line T-47D; test: Caspase cascade activation (Ac-DEVD-R110 fluorogenic substrate) in T-47D cells; conditions: T47D
Experimental: (§1) Human breast cancer cell line T-47D, human hepatocellular carcinoma cell line SNU398 and human colon carcinoma cell line HCT116 were grown according to media component mixtures designated by American Type Culture Collection+10% FCS (Invitrogen Corporation), in a 5% CO2-95% humidity incubator at 37° C. T-47D and H1299 cells were maintained at a cell density between 50 and 80% confluency at a cell density of 0.1 to 0.6×10^6 cells/mL. Cells were harvested at 600×g and resuspended at 0.65×10^6 cells/mL into appropriate media+10% FCS. An aliquot of 22.5 μL of cells was added to a well of a 384-well microtiter plate containing 2.5 μL of a 10% DMSO in RPMI-1640 media solution containing 0.16 to 100 μM of 5,7-dihydro-N-(3,5-dimethoxyphenyl)-2-(methylthio)furo[3,4-d]pyrimidin-4-amine or other test compound (0.016 to 10 μM final). An aliquot of 22.5 μL of cells was added to a well of a 384-well microtiter plate containing 2.5 μL of a 10% DMSO in RPMI-1640 media solution without test compound as the control sample. The samples were mixed by agitation and then incubated at 37° C. for 24 or 48 h in a 5% CO2-95% humidity incubator. After incubation, the samples were removed from the incubator and 25 μL of a solution containing 14 μM of N-(Ac-DEVD)-N′-ethoxycarbonyl-R110 (SEQ ID No.:1) fluorogenic substrate (Cytovia, Inc.; WO99/18856), 20% sucrose (Sigma), 20 mM DTT (Sigma), 200 mM NaCl (Sigma), 40 mM Na PIPES buffer pH 7.2 (Sigma), and 500 µg/mL lysolecithin (Calbiochem) was added. The samples were mixed by agitation and incubated at room temperature. Using a fluorescent plate reader (Model SPECTRAfluor Plus, Tecan), an initial reading (T=0) was made approximately 1-2 min after addition of the substrate solution, employing excitation at 485 nm and emission at 530 nm, to determine the background fluorescence of the control sample. After the 3 h incubation, the samples were read for fluorescence as above (T=3 h).
(§2) The Relative Fluorescence Unit values (RFU) were used to calculate the sample readings as follows: RFU(T=3h)−Control RFU(T=0)=Net RFU(T=3h)
(§3) The activity of caspase cascade activation was determined by the ratio of the net RFU value for 5,7-dihydro-N-(3,5-dimethoxyphenyl)-2-(methylthio)furo[3,4-d]pyrimidin-4-amino or other test compound to that of control samples. The EC50 (nM) was determined by a sigmoidal dose-response calculation (Prism 3.0, GraphPad Software Inc.).

T-47D cells = test: Inhibition of cell proliferation (GI50, CellTiter-Glo) in T-47D cells; conditions: Homo sapiens, T47D, 48 h, read-out: GI50 in Cancer Cells T47D
Experimental: (§4) T-47D, MX-1, SNU398 and HCT116 cells were grown and harvested as in Example 33. An aliquot of 90 μL of cells (4.4×10^4 cells/mL) was added to a well of a 96-well microtiter plate containing 5 μL of a 10% DMSO in RPMI-1640 media solution containing 10 nM to 100 μM of 5,7-dihydro-N-(3,5-dimethoxyphenyl)-2-(methylthio)furo[3,4-d]pyrimidin-4-amine (1 nM to 10 μM final) or related compounds. An aliquot of […] of cells was added to a well of a 96-well microtiter plate containing 5 μL of a 10% DMSO in RPMI-1640 media solution without compound as the control sample for maximal cell proliferation (LMax). The samples were mixed by agitation and then incubated at 37° C. for 48 h in a 5% CO2-95% humidity incubator. After incubation, the samples were removed from the incubator and 25 μL of CellTiter-Glo™ reagent (Promega) was added. The samples were mixed by agitation and incubated at room temperature for 10-15 min. Plates were then read using a luminescent plate reader (Model SPECTRAfluor Plus, Tecan) to give Ltest values.
(§5) Baseline for GI50 (dose for 50% inhibition of cell proliferation) of initial cell numbers was determined by adding an aliquot of 45 μL of cells or 45 μL of media, respectively, to wells of a 96-well microtiter plate containing 5 μL of a 10% DMSO in RPMI-1640 media solution. The samples were mixed by agitation and then incubated at 37° C. for 0.5 h in a 5% CO2-95% humidity incubator. After incubation, the samples were removed from the incubator and 25 μL of CellTiter-Glo™ reagent (Promega) was added. The samples were mixed by agitation and incubated at 37° C. for 10-15 min at room temperature in a 5% CO2-95% humidity incubator. Fluorescence was read as above, (LStart) defining luminescence for initial cell number used as baseline in GI50 determinations.
(§6) GI50 (dose for 50% inhibition of cell proliferation) is the concentration where [(LTest−LStart)/(LMax−LStart)]=0.5.

[2] = system: human hepatocellular carcinoma cell line SNU398; test: Caspase cascade activation (Ac-DEVD-R110 fluorogenic substrate) in SNU398 cells
Experimental: as §1, §2, §3

SNU398 cells = test: Inhibition of cell proliferation (GI50, CellTiter-Glo) in SNU398 cells; conditions: Homo sapiens, SNU-398, 48 h, read-out: GI50 in Cancer Cells SNU398
Experimental: as §4, §5, §6

[3] = system: human colon carcinoma cell line HCT116; test: Caspase cascade activation (Ac-DEVD-R110 fluorogenic substrate) in HCT116 cells; conditions: HCT-116, incubated 24 or 48 h (Table I), 0.016 to 10 μM final, read-out: Caspase Activation Potency EC50 HCT116
Experimental: as §1, §2, §3

MX-1 cells = test: Inhibition of cell proliferation (GI50, CellTiter-Glo) in MX-1 cells; conditions: Homo sapiens, MX1, 48 h, read-out: GI50 in Cancer Cells MX1
Experimental: as §4, §5, §6

HCT116 cells = test: Inhibition of cell proliferation (GI50, CellTiter-Glo) in HCT116 cells; conditions: Homo sapiens, HCT-116, 48 h, read-out: GI50 in Cancer Cells HCT116
Experimental: as §4, §5, §6

[4] = system: breast cancer cell line SKBR3; test: Caspase cascade activation (24 h assay) in SKBR3 cells; conditions: Homo sapiens, SK-BR-3, 24 h assay (Table II), read-out: Caspase Activation Potency EC50 (24 h) SKBR3
Experimental: [The procedure below names another cell line; the source lists this cell line under the same test.] Human breast cancer cell line T-47D, human hepatocellular carcinoma cell line SNU398 and human colon carcinoma cell line HCT116 were grown according to media component mixtures designated by American Type Culture Collection+10% FCS (Invitrogen Corporation), in a 5% CO2-95% humidity incubator at 37° C. T-47D and H1299 cells were maintained at a cell density between 50 and 80% confluency at a cell density of 0.1 to 0.6×10^6 cells/mL. Cells were harvested at 600×g and resuspended at 0.65×10^6 cells/mL into appropriate media+10% FCS. […] Using a fluorescent plate reader (Model SPECTRAfluor Plus, Tecan), an initial reading (T=0) was made approximately 1-2 min after addition of the substrate solution, employing excitation at 485 nm and emission at 530 nm, to determine the background fluorescence of the control sample. After the 3 h incubation, the samples were read for fluorescence as above (T=3 h).
as §2
(§7) The activity of caspase cascade activation was determined by the ratio of the net RFU value for 5,7-dihydro-N-(3,5-dimethoxyphenyl)-2-(methylthio)furo[3,4-d]pyrimidin-4-amino or other test compound to that of control samples. The EC50 (nM) was determined by a sigmoidal dose-response calculation (Prism 3.0, GraphPad Software Inc.). […]

[5] = system: human lung cancer cell line H1299; test: Caspase cascade activation (24 h assay) in H1299 cells; conditions: NCI-H1299, 24 h assay (Table II), read-out: Caspase Activation Potency EC50 (24 h) H1299
Experimental: as §1, with “After incubation, the samples were removed from the incubator and 25 μL of a solution containing 14 μM of N-(Ac-DEVD)-N′-ethoxycarbonyl-R110 (SEQ ID No.:1) fluorogenic substrate (Cytovia, Inc.; WO99/18856), 20% sucrose (Sigma), 20 mM DTT (Sigma), 200 mM NaCl (Sigma), 40 mM Na PIPES buffer pH 7.2 (Sigma), and 500 µg/mL lysolecithin (Calbiochem) was added. The samples were mixed by agitation and incubated at room temperature.” left out
as §2, §7

[6] = system: human breast cancer cell lines MDAMB435; test: Inhibition of cell proliferation (GI50) in MDAMB435 cells; conditions: MDA-MB-435, read-out: GI50 in Multi-Cancer Cells MDAMB435
Experimental: [The procedure below names another cell line; the source lists this cell line under the same test.] as §4
(§8) Baseline for GI50 (dose for 50% inhibition of cell proliferation) of initial cell numbers was determined by adding an aliquot of 45 μL of cells or 45 μL of media, respectively, to wells of a 96-well microtiter plate containing 5 μL of a 10% DMSO in RPMI-1640 media solution. […]

[7] = system: multi-drug resistant (MDR) human sarcoma cell line MES-SA/ADR; test: Inhibition of cell proliferation (GI50) in MES-SA/ADR cells; conditions: read-out: GI50 in Multi-Cancer Cells MES-SA/ADR
Experimental: [The procedure below names another cell line; the source lists this cell line under the same test.] as §4, §8

[8] = system: multi-drug resistant (MDR) murine leukemia cell line P388ADR; test: Inhibition of cell proliferation (GI50) in P388ADR cells; conditions: Mus musculus, P388/ADR, read-out: GI50 in Multi-Cancer Cells P388ADR
Experimental: [The procedure below names another organism; the source lists this organism under the same test.] as §4, §8

[9] = system: murine leukemia cell line P388; test: Inhibition of cell proliferation (GI50) in P388 cells; conditions: Mus musculus, read-out: GI50 in Multi-Cancer Cells P388
Experimental: [The procedure below names another organism; the source lists this organism under the same test.] as §4, §8

[10] = system: human sarcoma cell line MES-SA; test: Inhibition of cell proliferation (GI50) in MES-SA cells; conditions: read-out: GI50 in Multi-Cancer Cells MES-SA
Experimental: [The procedure below names another cell line; the source lists this cell line under the same test.] as §4, §8

[11] = 24 h assay (Table II), read-out: Caspase Activation Potency EC50 (24 h) T47D
[12] = T-47D, incubated 24 or 48 h (Table I), 0.016 to 10 μM final, read-out: Caspase Activation Potency EC50 T-47D
[13] = SNU-398, 24 h assay (Table II), read-out: Caspase Activation Potency EC50 (24 h) SNU398
[14] = SNU-398, incubated 24 or 48 h (Table I), 0.016 to 10 μM final, read-out: Caspase Activation Potency EC50 SNU398

Row | Structure (SMILES) | EC50 [1, 11] | EC50 [1, 12] | GI50 (T-47D cells) | EC50 [2, 13] | EC50 [2, 14] | GI50 (SNU398 cells) | EC50 [3] | GI50 (MX-1 cells) | GI50 (HCT116 cells) | EC50 [4] | EC50 [5] | GI50 [6] | GI50 [7] | GI50 [8] | GI50 [9] | GI50 [10]
1 | COc1cc(Nc2nc(SC)nc3c2COC3)cc(OC)c1 [Example 7, 5,7-Dihydro-N-(3,5-dimethoxyphenyl)-2-(methylthio)furo[3,4-d]pyrimidin-4-amine] | 54 nM | 61 nM | 183 nM | > 10 µM | 4.71 µM | 3.74 µM | 5.5 µM | 27 nM | 3 µM | 118 nM |  |  |  |  |  | 
2 | COc1ccc(OC)c(Nc2nc(SC)nc3c2CCC3)c1 [Example 18, 6,7-Dihydro-N-(2,5-dimethoxyphenyl)-2-(methylthio)-5H-cyclopenta[d]pyrimidin-4-amine] | 82 nM | 134 nM | 21 nM | > 10 µM | 1.32 µM | > 10 µM | 0.286 µM | 200 nM | > 10 µM |  | 934 nM |  |  |  |  | 
3 | COc1ccc(N(C)c2nc(SC)nc3c2CCC3)cc1 [Example 23, 6,7-Dihydro-N-(4-methoxyphenyl)-N-methyl-2-(methylthio)-5H-cyclopenta[d]pyrimidin-4-amine] | 32 nM | 31 nM | 46 nM | 0.035 µM |  |  |  | 50 nM |  |  | 43 nM | 4 nM | 26 nM | 21 nM | 14 nM | 26 nM
4 | COc1cc(Nc2ncnc3c2CCC3)cc(OC)c1 [Example 24, 6,7-Dihydro-N-(3,5-dimethoxyphenyl)-5H-cyclopenta[d]pyrimidin-4-amine] |  | 987 nM | 5000 nM |  | > 10 µM | > 10 µM | > 10 µM | 5000 nM | > 10 µM |  |  |  |  |  |  | 
5 | COc1ccc(OC)c(Nc2ncnc3c2CCC3)c1 [Example 25, 6,7-Dihydro-N-(2,5-dimethoxyphenyl)-5H-cyclopenta[d]pyrimidin-4-amine] | 244 nM | 260 nM | 1000 nM | > 10 µM | > 10 µM | > 10 µM | > 10 µM | 890 nM | > 10 µM | 355 nM | > 10000 nM |  |  |  |  | 
6 | COc1cc(Nc2nc([S+](C)[O-])nc3c2CCC3)cc(OC)c1 (centres unmarked) [Example 27, 6,7-Dihydro-N-(3,5-dimethoxyphenyl)-2-(methylsulfinyl)-5H-cyclopenta[d]pyrimidin-4-amine] |  | 164 nM | 500 nM |  | > 10 µM | > 10 µM | > 10 µM | 600 nM | > 10 µM |  |  |  |  |  |  | 
